# Measured values published in US20250325493A1, “COMPOSITIONS AND METHODS FOR MAKING AND USING POLYMER-COATED NANOCAPSULES FOR TARGETED PHARMACEUTICAL AGENT DELIVERY” (The Regents of the University of Colorado, a body Corporate, priority 2022, published 2025).
# How the values were obtained:
# sBC clusters = experiment: Selective delivery of PTM toxin to sBC clusters, live/dead cell quantification; format: cell-based, human; conditions: 24 hours, vs untreated control
# Description: Blank or pentamidine (PTM) (B-cell toxin) loaded NCs were left uncoated or coated with either an ENTPD3 antibody or BSA for up to about 168 hours. Untreated and 1 μM free PTM were utilized as additional controls. […] Although benzalkonium chloride (BKC) can be used for biological applications, it can be toxic to cells at high concentrations.
# In further exemplary methods, the number of GFP positive and GFP negative dead cells were quantified as GFP correlates to insulin positive cells. For the dead sBC clusters, 76% at 24 hours (FIG. 20G) and 69% at 72 hours were GFP positive (FIG. 20H).
# [1] = NC stability after freeze drying with cryoprotectant; format: physicochemical
# Description: In another exemplary method, NC stability after freeze drying was tested as a potential method for preserving NCs for long term storage and use including analyzing NC integrity and cargo retention for extended periods of time. In this example, mannitol (a sugar alcohol example, e.g., sorbitol and the like) was chosen as the cryoprotectant. W/O NCs were utilized for this experiment. Mannitol concentrations of 2.5% w/v, 5.0 w/v, and 10.0 w/v were tested to determine the optimal concentration (FIG. 13A). […] SEM images were taken before (FIG. 13B) and after (FIG. 13C) freeze drying to confirm DLS measurements. It was observed that the NC yield decreased after reconstitution which may be attributed to the mannitol crystallizing and imposing mechanical forces either breaking the NCs or forming aggregates. It is noted that mannitol can be removed, if needed or desired, from the NC formulations by centrifugation and washing in either water or PBS.
ability to replace mannitol as cryoprotectant in freeze drying of NCs [1],SMILES,percentage of dead cells (sBC clusters)
–,"N=C(N)c1ccc(OCCCCCOc2ccc(C(=N)N)cc2)cc1 [free PTM, pentamidine]",killed the majority of sBCs
failed to stabilize the NCs,OC[C@H]1O[C@@](CO)(O[C@H]2O[C@H](CO)[C@@H](O)[C@H](O)[C@H]2O)[C@@H](O)[C@@H]1O [sucrose],–
failed to stabilize the NCs,OC[C@H]1O[C@H](O[C@]2(CCl)O[C@H](CCl)[C@@H](O)[C@@H]2O)[C@H](O)[C@@H](O)[C@H]1Cl [sucralose],–
